Test results taken from patent US9642831B2, “Substituted chromanes and method of use” (AbbVie S.á.r.l., priority 2014, dated 2017).

Biological target: F508delCFTR (Homo sapiens, UniProt P13569, DEL508-508)
Assay: Cell Surface Expression-Horse Radish Peroxidase (CSE-HRP) assay
Assay type: cell-based
Set-up: expressed in transfected cells; host or cells: CFBE41o- human lung derived epithelial cell line, doxycycline-inducible
Conditions: CFBE4lo-F508delCFTR-HRP cells; for EC50: 18-24 hours at 33° C., 8-point curve, highest concentration 20 μM, luminescence readout; for Emax: maximum % activity at any tested concentration, normalized to on-plate positive control (3 μM Example 1)
Summary of the method: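 Following 18-24 h compound exposure at 33° C. Expression was doxycycline-induced beforehand. % activity versus DMSO and a 3 μM corrector control gave maximum activity and EC50 from a variable-Hill sigmoidal fit.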

F508delCFTR, sequence (P13569 with tags, fused parts or gaps DEL508-508): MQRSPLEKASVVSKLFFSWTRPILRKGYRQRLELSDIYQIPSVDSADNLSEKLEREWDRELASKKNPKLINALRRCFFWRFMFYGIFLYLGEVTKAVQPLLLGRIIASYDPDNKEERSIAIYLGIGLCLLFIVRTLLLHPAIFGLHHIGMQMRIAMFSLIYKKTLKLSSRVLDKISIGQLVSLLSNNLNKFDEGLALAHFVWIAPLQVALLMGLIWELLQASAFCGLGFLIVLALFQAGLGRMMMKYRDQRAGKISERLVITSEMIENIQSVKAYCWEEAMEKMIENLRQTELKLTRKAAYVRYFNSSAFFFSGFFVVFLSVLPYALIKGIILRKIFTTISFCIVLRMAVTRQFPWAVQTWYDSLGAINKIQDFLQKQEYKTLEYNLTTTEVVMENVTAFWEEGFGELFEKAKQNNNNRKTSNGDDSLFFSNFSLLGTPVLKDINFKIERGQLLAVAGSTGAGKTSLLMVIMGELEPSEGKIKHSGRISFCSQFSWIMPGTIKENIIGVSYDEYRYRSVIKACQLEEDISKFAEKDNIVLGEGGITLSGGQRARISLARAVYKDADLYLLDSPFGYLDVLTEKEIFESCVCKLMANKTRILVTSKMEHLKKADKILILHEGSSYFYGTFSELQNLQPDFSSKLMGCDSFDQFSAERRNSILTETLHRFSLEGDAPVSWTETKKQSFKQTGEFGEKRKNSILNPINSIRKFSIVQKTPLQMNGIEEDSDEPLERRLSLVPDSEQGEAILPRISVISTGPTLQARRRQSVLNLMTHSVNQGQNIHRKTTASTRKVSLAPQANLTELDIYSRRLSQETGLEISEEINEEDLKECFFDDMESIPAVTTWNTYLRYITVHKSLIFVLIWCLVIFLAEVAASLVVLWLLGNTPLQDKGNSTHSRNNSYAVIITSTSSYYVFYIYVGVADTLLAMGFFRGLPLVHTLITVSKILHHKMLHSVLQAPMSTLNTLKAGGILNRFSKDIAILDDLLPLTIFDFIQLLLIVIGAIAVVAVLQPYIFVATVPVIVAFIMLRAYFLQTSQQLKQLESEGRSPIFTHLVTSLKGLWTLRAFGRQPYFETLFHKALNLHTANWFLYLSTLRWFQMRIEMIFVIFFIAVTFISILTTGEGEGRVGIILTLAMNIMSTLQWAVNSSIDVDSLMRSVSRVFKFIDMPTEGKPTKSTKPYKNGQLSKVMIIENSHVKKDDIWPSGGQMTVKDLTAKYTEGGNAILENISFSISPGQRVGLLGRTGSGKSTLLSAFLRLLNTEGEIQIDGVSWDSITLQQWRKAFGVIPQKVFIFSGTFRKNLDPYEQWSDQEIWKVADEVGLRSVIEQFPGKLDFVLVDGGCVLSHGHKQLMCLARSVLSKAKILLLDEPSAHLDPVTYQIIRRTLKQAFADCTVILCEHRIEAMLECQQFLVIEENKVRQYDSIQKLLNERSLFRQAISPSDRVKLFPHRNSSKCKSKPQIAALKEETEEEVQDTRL

Compound | EC50 | Emax
O=C(NC1CC(c2ccc(Cl)cc2)Oc2ccccc21)C1(c2ccc3c(c2)OC(F)(F)O3)CC1 (stereo not shown) [Example 68, N-[2-(4-chlorophenyl)-3,4-dihydro-2H-chromen-4-yl]-1-(2,2-difluoro-1,3-benzodioxol-5-yl)cyclopropanecarboxamide] | 0.87 µM | 89%
COc1ccc(C2CC(NC(=O)C3(c4ccc5c(c4)OC(F)(F)O5)CC3)c3ccccc3O2)cc1OC (stereo not shown) [Example 69, 1-(2,2-difluoro-1,3-benzodioxol-5-yl)-N-[2-(3,4-dimethoxyphenyl)-3,4-dihydro-2H-chromen-4-yl]cyclopropanecarboxamide] | 2.12 µM | 109%
O=C(NC1CC(c2cccc(Cl)c2)Oc2ccccc21)C1(c2ccc3c(c2)OC(F)(F)O3)CC1 (stereo not shown) [Example 70, N-[2-(3-chlorophenyl)-3,4-dihydro-2H-chromen-4-yl]-1-(2,2-difluoro-1,3-benzodioxol-5-yl)cyclopropanecarboxamide] | 6.84 µM | 94%
O=C(NC1CC(c2ccc(F)cc2)Oc2ccccc21)C1(c2ccc3c(c2)OC(F)(F)O3)CC1 (stereo not shown) [Example 71, 1-(2,2-difluoro-1,3-benzodioxol-5-yl)-N-[2-(4-fluorophenyl)-3,4-dihydro-2H-chromen-4-yl]cyclopropanecarboxamide] | 2.84 µM | 91%
COc1ccc2c(c1)C(NC(=O)C1(c3ccc4c(c3)OC(F)(F)O4)CC1)C(Cc1ccc(OC)c(OC)c1)CO2 (stereo not shown) [Example 72, 1-(2,2-difluoro-1,3-benzodioxol-5-yl)-N-[3-(3,4-dimethoxybenzyl)-6-methoxy-3,4-dihydro-2H-chromen-4-yl]cyclopropanecarboxamide] | 2.5 µM | 71%
O=C(NC1c2ccccc2OCC1Cc1ccccc1)C1(c2ccc3c(c2)OC(F)(F)O3)CC1 (stereo not shown) [Example 73, N-(3-benzyl-3,4-dihydro-2H-chromen-4-yl)-1-(2,2-difluoro-1,3-benzodioxol-5-yl)cyclopropanecarboxamide] | 7.63 µM | 57%
CCC1(CC)C[C@@H](NC(=O)C2(c3ccc4c(c3)OC(F)(F)O4)CC2)c2ccccc2O1 [Example 74, N-[(4R)-2,2-diethyl-3,4-dihydro-2H-chromen-4-yl]-1-(2,2-difluoro-1,3-benzodioxol-5-yl)cyclopropanecarboxamide] | 5.53 µM | 98%
O=C(N[C@@H]1CC(CF)(CF)Oc2ccccc21)C1(c2ccc3c(c2)OC(F)(F)O3)CC1 [Example 75, N-[(4R)-2,2-bis(fluoromethyl)-3,4-dihydro-2H-chromen-4-yl]-1-(2,2-difluoro-1,3-benzodioxol-5-yl)cyclopropanecarboxamide] | 3.28 µM | 75%
CC1(C)C[C@@H](NC(=O)C2(c3ccc4c(c3)OC(F)(F)O4)CC2)c2ccc(Cl)cc2O1 [Example 76, N-[(4R)-7-chloro-2,2-dimethyl-3,4-dihydro-2H-chromen-4-yl]-1-(2,2-difluoro-1,3-benzodioxol-5-yl)cyclopropanecarboxamide] | 2.99 µM | 105%
O=C(N[C@@H]1CC2(CCCC2)Oc2ccccc21)C1(c2ccc3c(c2)OC(F)(F)O3)CC1 [Example 78, 1-(2,2-difluoro-1,3-benzodioxol-5-yl)-N-[(4R)-3,4-dihydrospiro[chromene-2,1′-cyclopentan]-4-yl]cyclopropanecarboxamide] | 5.28 µM | 95%
O=C(N[C@@H]1CC(CF)(CF)Oc2cc(F)ccc21)C1(c2ccc3c(c2)OC(F)(F)O3)CC1 [Example 79, 1-(2,2-difluoro-1,3-benzodioxol-5-yl)-N-[(4R)-7-fluoro-2,2-bis(fluoromethyl)-3,4-dihydro-2H-chromen-4-yl]cyclopropanecarboxamide] | 7.25 µM | 117%
C[C@@]1(CF)C[C@@H](NC(=O)C2(c3ccc4c(c3)OC(F)(F)O4)CC2)c2ccc(C(F)(F)F)cc2O1 [Example 80, 1-(2,2-difluoro-1,3-benzodioxol-5-yl)-N-[(2S,4R)-2-(fluoromethyl)-2-methyl-7-(trifluoromethyl)-3,4-dihydro-2H-chromen-4-yl]cyclopropanecarboxamide] | 1.55 µM | 114%
C[C@]1(C(F)F)C[C@@H](NC(=O)C2(c3ccc4c(c3)OC(F)(F)O4)CC2)c2ccccc2O1 [Example 81, 1-(2,2-difluoro-1,3-benzodioxol-5-yl)-N-[(2R,4R)-2-(difluoromethyl)-2-methyl-3,4-dihydro-2H-chromen-4-yl]cyclopropanecarboxamide] | 4.5 µM | 98%
C[C@@]1(C(F)F)C[C@@H](NC(=O)C2(c3ccc4c(c3)OC(F)(F)O4)CC2)c2ccccc2O1 [Example 82, 1-(2,2-difluoro-1,3-benzodioxol-5-yl)-N-[(2S,4R)-2-(difluoromethyl)-2-methyl-3,4-dihydro-2H-chromen-4-yl]cyclopropanecarboxamide] | 2.72 µM | 97%
C[C@@]1(C(F)F)C[C@@H](NC(=O)C2(c3ccc4c(c3)OC(F)(F)O4)CC2)c2ccc(Cl)cc2O1 [Example 83, N-[(2S,4R)-7-chloro-2-(difluoromethyl)-2-methyl-3,4-dihydro-2H-chromen-4-yl]-1-(2,2-difluoro-1,3-benzodioxol-5-yl)cyclopropanecarboxamide] | 2.72 µM | 106%
C[C@]1(C(F)F)C[C@@H](NC(=O)C2(c3ccc4c(c3)OC(F)(F)O4)CC2)c2ccc(Cl)cc2O1 [Example 84, N-[(2R,4R)-7-chloro-2-(difluoromethyl)-2-methyl-3,4-dihydro-2H-chromen-4-yl]-1-(2,2-difluoro-1,3-benzodioxol-5-yl)cyclopropanecarboxamide] | 2.24 µM | 91%
C[C@@]1(C(F)(F)F)C[C@@H](NC(=O)C2(c3ccc4c(c3)OC(F)(F)O4)CC2)c2ccccc2O1 [Example 85, 1-(2,2-difluoro-1,3-benzodioxol-5-yl)-N-[(2S,4R)-2-methyl-2-(trifluoromethyl)-3,4-dihydro-2H-chromen-4-yl]cyclopropanecarboxamide] | 6.81 µM | 108%
CC1(C)C[C@@H](NC(=O)C2(c3ccc4c(c3)OC(F)(F)O4)CC2)c2ccc(F)cc2O1 [Example 86, 1-(2,2-difluoro-1,3-benzodioxol-5-yl)-N-[(4R)-7-fluoro-2,2-dimethyl-3,4-dihydro-2H-chromen-4-yl]cyclopropanecarboxamide] | 3.5 µM | 101%
O=C(N[C@@H]1CC(CF)(CF)Oc2cc(Cl)ccc21)C1(c2ccc3c(c2)OC(F)(F)O3)CC1 [Example 87, N-[(4R)-7-chloro-2,2-bis(fluoromethyl)-3,4-dihydro-2H-chromen-4-yl]-1-(2,2-difluoro-1,3-benzodioxol-5-yl)cyclopropanecarboxamide] | 4.63 µM | 146%
CC1(C)C[C@@H](NC(=O)C2(c3ccc4c(c3)OC(F)(F)O4)CC2)c2ccc(F)c(Cl)c2O1 [Example 90, N-[(4R)-8-chloro-7-fluoro-2,2-dimethyl-3,4-dihydro-2H-chromen-4-yl]-1-(2,2-difluoro-1,3-benzodioxol-5-yl)cyclopropanecarboxamide] | 3.44 µM | 42%
COc1ccc2c(c1)OCC(Cc1ccc(OC)c(OC)c1)C2NC(=O)C1(c2ccc3c(c2)OC(F)(F)O3)CC1 (stereo not shown) [Example 91, 1-(2,2-difluoro-1,3-benzodioxol-5-yl)-N-[3-(3,4-dimethoxybenzyl)-7-methoxy-3,4-dihydro-2H-chromen-4-yl]cyclopropanecarboxamide] | 2.71 µM | 82%
CC(C)(C)OC(=O)N1CCC2(CC1)CC(NC(=O)C1(c3ccc4c(c3)OC(F)(F)O4)CC1)c1ccc(F)cc1O2 (stereo not shown) [Example 92, tert-butyl 4-({[1-(2,2-difluoro-1,3-benzodioxol-5-yl)cyclopropyl]carbonyl}amino)-7-fluoro-3,4-dihydro-1′H-spiro[chromene-2,4′-piperidine]-1′-carboxylate] | 2.57 µM | 71%
O=C(NC1CC2(CCNCC2)Oc2cc(F)ccc21)C1(c2ccc3c(c2)OC(F)(F)O3)CC1 (stereo not shown) [Example 93, 1-(2,2-difluoro-1,3-benzodioxol-5-yl)-N-(7-fluoro-3,4-dihydrospiro[chromene-2,4′-piperidin]-4-yl)cyclopropanecarboxamide] | 2.8 µM | 26%
COCCOc1ccc2c(c1)O[C@@H](c1cccc(C(=O)OC)c1)C[C@H]2NC(=O)C1(c2ccc3c(c2)OC(F)(F)O3)CC1 [Example 94, methyl 3-[(2R,4R)-4-({[1-(2,2-difluoro-1,3-benzodioxol-5-yl)cyclopropyl]carbonyl}amino)-7-(2-methoxyethoxy)-3,4-dihydro-2H-chromen-2-yl]benzoate] | 0.94 µM | 119%
COC(=O)c1cccc([C@H]2C[C@@H](NC(=O)C3(c4ccc5c(c4)OC(F)(F)O5)CC3)c3ccc(OCc4ccccc4)cc3O2)c1 [Example 95, methyl 3-[(2R,4R)-7-(benzyloxy)-4-({[1-(2,2-difluoro-1,3-benzodioxol-5-yl)cyclopropyl]carbonyl}amino)-3,4-dihydro-2H-chromen-2-yl]benzoate] | 0.92 µM | 98%
O=C(O)COc1ccc2c(c1)O[C@@H](c1cccc(C(=O)O)c1)C[C@H]2NC(=O)C1(c2ccc3c(c2)OC(F)(F)O3)CC1 [Example 96, 3-[(2R,4R)-7-(carboxymethoxy)-4-({[1-(2,2-difluoro-1,3-benzodioxol-5-yl)cyclopropyl]carbonyl}amino)-3,4-dihydro-2H-chromen-2-yl]benzoic acid] | ≥ 20 µM | 15%
